From BindingDB's records for doi:10.1021/jm00006a007 (Parke-Davis Pharmaceutical Research, 1995)

Molecular target: T1, Dimer of Gag-Pol polyprotein [489-587] (Human immunodeficiency virus 1, UniProt P12497)
T1 construct: 489-587
Assay: Protease Inhibition Assay
Conditions: pH 4.7; 37 °C
Protocol: For determination of IC50 values, HIV-1 protease was added to assay buffer containing inhibitor and the substrate (H-His-Lys-Ala-Arg-Val-Leu- (p-NO2) Phe-Glu-Ala-norleucine-Ser-NH2). The Leu- (p-NO2) Phe bond of the substrate was cleaved by the enzyme, and the substrate and products were separated by reversed-phase HPLC. Absorbance was measured at 220 nm, peak areas were determined, and percentage conversion to product was calculated.

SMILES: O=c1oc(-c2ccccc2)cc(O)c1C(CC1CC1)SC1CCCC1 (racemic) [3-[1-(cyclopentylsulfanyl)-2-cyclopropylethyl]-4-hydroxy-6-phenyl-2H-pyran-2-one]
- IC50: 69 nM

SMILES: O=c1oc(-c2ccccc2)cc(O)c1C(Sc1ccccc1)c1ccccc1 (racemic) [(+/-)-4-Hydroxy.6-phenyl-3-[phenyl(phenylthio)methyl]-2H-pyran-2-one]
- IC50: 780 nM

SMILES: O=c1oc(-c2ccccc2)cc(O)c1CSc1ccccc1 [4-hydroxy-6-phenyl-3-[(phenylsulfanyl)methyl]-2H-pyran-2-one]
- IC50: 84300 nM

SMILES: O=c1oc(-c2ccccc2)cc(O)c1C(Sc1ccc2ccccc2c1)c1ccccc1 (racemic) [4-hydroxy-3-[(naphthalen-2-ylsulfanyl)(phenyl)methyl]-6-phenyl-2H-pyran-2-one]
- IC50: 2450 nM

SMILES: CC(C)CC(SC1CCCC1)c1c(O)cc(-c2ccccc2)oc1=O (racemic) [(+/-)-3-[1-(Cyclopentylthio)-3-methylbutyl]-4-hydroxy-6-phenyl-2H-pyran-2-one]
- Ki: 33 nM

SMILES: O=c1oc(-c2ccccc2)cc(O)c1C(SCc1ccccc1)c1ccccc1 (racemic) [3-[(benzylsulfanyl)(phenyl)methyl]-4-hydroxy-6-phenyl-2H-pyran-2-one]
- IC50: 480 nM

SMILES: O=c1oc(-c2ccccc2)cc(O)c1C(Sc1ccccc1)c1ccc2ccccc2c1 (racemic) [4-hydroxy-3-[naphthalen-2-yl(phenylsulfanyl)methyl]-6-phenyl-2H-pyran-2-one]
- IC50: 7820 nM

SMILES: O=c1oc(-c2ccccc2)cc(O)c1C(SC1CCCCC1)c1ccccc1 (stereo not drawn) [3-[(cyclohexylsulfanyl)(phenyl)methyl]-4-hydroxy-6-phenyl-2H-pyran-2-one]
- IC50: 480 nM

SMILES: O=c1oc(-c2ccccc2)cc(O)c1C(CC1CC1)SC1CCCCC1 (racemic) [3-[1-(cyclohexylsulfanyl)-2-cyclopropylethyl]-4-hydroxy-6-phenyl-2H-pyran-2-one]
- IC50: 147 nM

SMILES: O=c1oc(-c2ccccc2)cc(O)c1C(SC1CCCC1)C1CCCC1 (racemic) [3-[cyclopentyl(cyclopentylsulfanyl)methyl]-4-hydroxy-6-phenyl-2H-pyran-2-one]
- IC50: 225 nM

SMILES: O=c1oc(-c2ccccc2)cc(O)c1C(Sc1ccccc1)C1CCCCC1 (racemic) [(+/-)-3-[Cyclohexyl(phenylthio)methyl]-4-hydroxy-phenyl-2H-pyran-2-one]
- IC50: 2440 nM

SMILES: O=c1oc(-c2ccccc2)cc(O)c1C(CC1CCCC1)SC1CCCCC1 (racemic) [3-[1-(cyclohexylsulfanyl)-2-cyclopentylethyl]-4-hydroxy-6-phenyl-2H-pyran-2-one]
- IC50: 541 nM

SMILES: O=c1oc(-c2ccccc2)cc(O)c1C(CC1CC1)SCc1ccccc1 (racemic) [3-[1-(benzylsulfanyl)-2-cyclopropylethyl]-4-hydroxy-6-phenyl-2H-pyran-2-one]
- IC50: 84 nM
